{"source": "patent US11638718B2", "about": "“Treatment of alphavirus-induced inflammation” (priority 2016, dated 2023)", "key": {"[1]": {"system": "alphavirus", "details": "earlier studies by the group (refs 30, 55-57); cited from earlier work"}, "[2]": {"system": "Ross River virus (RRV)", "experiment": "RRV-induced disease in mice: clinical score and weight", "assay_type": "in vivo, C57BL/6 mice", "details": "RRV-infected mice, PPS 3 mg/kg i.p. daily vs vehicle"}, "[3]": {"system": "Ross River virus (RRV)", "experiment": "RRV viral load: plaque assay on Vero cells and nsP3 qPCR", "assay_type": "in vivo, C57BL/6 mice"}, "[4]": {"system": "chikungunya virus (CHIKV)", "experiment": "CHIKV-induced footpad swelling and joint histology in mice", "assay_type": "in vivo, C57BL/6 mice"}, "[5]": {"system": "chikungunya virus (CHIKV)", "experiment": "CHIKV viral load: plaque assay on Vero cells and E2 qPCR", "assay_type": "in vivo, C57BL/6 mice", "details": "CHIKV-infected, days 1, 3 and 7 p.i."}, "[6]": {"details": "humans, periods greater than 12 months (ref 53); cited from earlier work"}, "[7]": {"system": "chikungunya virus (CHIKV)", "experiment": "Serum soluble factors by multiplex, CHIKV-infected mice"}, "[8]": {"system": "Ross River virus (RRV)", "experiment": "Serum soluble factors by multiplex bead array, RRV-infected mice"}, "[9]": {"system": "Ross River virus (RRV)", "experiment": "H&E histology of quadriceps muscle and joint inflammation, RRV-infected mice"}, "[10]": {"system": "cartilage matrix genes in joint tissues of RRV-infected mice", "experiment": "Real-time PCR of cartilage matrix genes in joint tissues, acute RRV infection"}, "[11]": {"system": "Ross River virus (RRV)", "experiment": "Detection of leukocyte infiltrates in quadriceps by flow cytometry, RRV-infected mice"}, "[12]": {"system": "Ross River virus (RRV)", "experiment": "Long-term oral PPS treatment of RRV-infected mice: clinical signs, joint gene expression"}, "[13]": {"system": "Ross River virus (RRV)", "experiment": "Masson's trichrome and Safranin O/Fast Green histology of muscle, cartilage and epiphyseal plate, RRV-infected mice", "details": "day 10 p.i."}, "[14]": {"details": "peak disease (day 10 p.i.), not at the early stages"}, "[15]": {"details": "RRV + PPS, long-term oral treatment, joint tissue"}, "[16]": {"details": "long-term oral PPS, RRV-infected"}}, "note": "Marks after values point to notes of the source that are not given here."}
{"substance": "Enbrel", "values": [{"measurement": "effect on alphavirus disease", "setting": "[1]", "result": "suppress the antiviral response and enhance viral replication thereby worsen disease"}]}
{"substance": "pentosan polysulfate [PPS]", "values": [{"measurement": "decrease in clinical disease score", "setting": "[2]", "result": 65, "unit": "%"}, {"measurement": "disease-associated weight loss", "setting": "[2]", "result": "protection from disease-associated weight loss"}, {"measurement": "viral titres in serum", "setting": "[3]; PPS-treated vs mock-treated, all days tested, plaque assay", "result": "comparable"}, {"measurement": "RRV titres in quadriceps muscles", "setting": "[3]; PPS-treated vs mock-treated, plaque assay", "result": "comparable"}, {"measurement": "RRV titres in ankle tissues", "setting": "[3]; day 3 p.i., plaque assay", "result": "slight reduction"}, {"measurement": "RRV titres in ankle tissues", "setting": "[3]; day 7 p.i., plaque assay", "result": "comparable"}, {"measurement": "RRV RNA in joint tissue (qPCR), difference to mock-treated", "setting": "[3]; day 10 p.i.", "result": "not statistically significant"}, {"measurement": "RRV titres in ankle tissues", "setting": "[3]; day 10 p.i., plaque assay, vs mock-treated", "result": "elevated"}, {"measurement": "joint (footpad) swelling", "setting": "[4]; CHIKV-infected mice, PPS 3 mg/kg i.p. daily", "result": "decreased the level of joint swelling"}, {"measurement": "inflammatory cells infiltrating into the joint (H&E)", "setting": "[4]; CHIKV-infected, peak swelling 3 days p.i.", "result": "reduction in inflammatory cells infiltrating into the joint"}, {"measurement": "kinetics of virus infection (plaque assay)", "setting": "[5]", "result": "did not affect the kinetics of virus infection"}, {"measurement": "tolerability of long-term clinical use", "setting": "[6]", "result": "extremely well tolerated"}, {"measurement": "serum IL-10", "setting": "[7]; early", "result": "early surge"}, {"measurement": "serum CCL-2", "setting": "[7]; peak disease (day 3 p.i.)", "result": "reduced the levels"}, {"measurement": "serum G-CSF", "setting": "[7]; peak disease (day 3 p.i.)", "result": "reduced the levels"}, {"measurement": "serum IL-6", "setting": "[7]; peak disease (day 3 p.i.)", "result": "reduced the levels"}, {"measurement": "serum IL-9", "setting": "[7]; peak disease (day 3 p.i.)", "result": "reduced the levels"}, {"measurement": "serum IL-10", "setting": "[8]; day 1 p.i.", "result": "significantly elevated"}, {"measurement": "serum chemo-attractants factors", "setting": "[8]; day 1 p.i.", "result": "increased levels"}, {"measurement": "serum IL-10", "setting": "[8]; day 3 p.i.", "result": "significantly elevated"}, {"measurement": "serum CCL-2", "setting": "[8]; peak disease (day 10 p.i.)", "result": "significantly reduced"}, {"measurement": "serum IL-1α", "setting": "[8]; peak disease (day 10 p.i.)", "result": "significantly reduced"}, {"measurement": "serum IL-2", "setting": "[8]; peak disease (day 10 p.i.)", "result": "significantly reduced"}, {"measurement": "serum IL-6", "setting": "[8]; peak disease (day 10 p.i.)", "result": "significantly reduced"}, {"measurement": "serum MIP-1α", "setting": "[8]; peak disease (day 10 p.i.)", "result": "significantly reduced"}, {"measurement": "infiltrating cells in muscle and joint tissues (H&E)", "setting": "[9]; RRV-infected, PPS 3 mg/kg i.p. daily, day 7 and 10 p.i.", "result": "markedly reduced numbers of infiltrating cells"}, {"measurement": "inflammation in quadriceps muscle or ankle joint", "setting": "[9]; mock-infected PPS-treated mice", "result": "No inflammation was observed"}, {"measurement": "BMP-1 expression", "setting": "[10]; RRV-infected, PPS 3 mg/kg i.p.", "result": "unaffected"}, {"measurement": "TGF-β1 expression", "setting": "[10]; RRV-infected, PPS 3 mg/kg i.p.", "result": "unaffected"}, {"measurement": "aggrecan expression increase caused by RRV", "setting": "[10]; RRV-infected, PPS 3 mg/kg i.p.", "result": "largely reduced"}, {"measurement": "collagen I expression increase caused by RRV", "setting": "[10]; RRV-infected, PPS 3 mg/kg i.p.", "result": "largely reduced"}, {"measurement": "collagen II expression increase caused by RRV", "setting": "[10]; RRV-infected, PPS 3 mg/kg i.p.", "result": "largely reduced"}, {"measurement": "metalloproteinases expression", "setting": "[10]; RRV-infected, PPS 3 mg/kg i.p.", "result": "unaffected"}, {"measurement": "early expression of aggrecan", "setting": "[10]; early time points p.i.", "result": "significantly reduced"}, {"measurement": "early expression of collagen II", "setting": "[10]; early time points p.i.", "result": "significantly reduced"}, {"measurement": "ADAMTS-5 expression in joint tissue", "setting": "[10]; [14]", "result": "significantly reduced"}, {"measurement": "TIMP-3 expression in joint tissue", "setting": "[10]; [14]", "result": "significantly reduced"}, {"measurement": "NK cell population in quadriceps", "setting": "[11]; day 7 p.i.", "result": "reductions"}, {"measurement": "T cell population in quadriceps", "setting": "[11]; day 7 p.i.", "result": "reductions"}, {"measurement": "monocyte population in quadriceps", "setting": "[11]; day 7 p.i.", "result": "reductions"}, {"measurement": "numbers of CD45+ infiltrating leukocytes in quadriceps", "setting": "[11]; day 7 p.i.", "result": "uniformly reduced"}, {"measurement": "NK cell population in quadriceps", "setting": "[11]; day 10 p.i.", "result": "decrease"}, {"measurement": "T cell population in quadriceps", "setting": "[11]; day 10 p.i.", "result": "decrease"}, {"measurement": "percentage of NK cells in quadriceps (NK cell to total cell ratio)", "setting": "[11]; day 10 p.i., data not shown", "result": "reduction in the overall percentage of NK cells"}, {"measurement": "Fold Change ADAMTS-4", "setting": "[12]; [15]", "result": "0.1689**"}, {"measurement": "Fold Change ADAMTS-5", "setting": "[12]; [15]", "result": 0.8305}, {"measurement": "Fold Change Aggrecan", "setting": "[12]; [15]", "result": "0.6105***"}, {"measurement": "Fold Change BMP-1", "setting": "[12]; [15]", "result": 1.4697}, {"measurement": "Fold Change Collagen I", "setting": "[12]; [15]", "result": 0.4014}, {"measurement": "Fold Change Collagen II", "setting": "[12]; [15]", "result": 0.1719}, {"measurement": "Fold Change MMP-3", "setting": "[12]; [15]", "result": 2.5028}, {"measurement": "Fold Change MMP-9", "setting": "[12]; [15]", "result": 0.8604}, {"measurement": "Fold Change TGF-β1", "setting": "[12]; [15]", "result": 0.4010}, {"measurement": "Fold Change TIMP-3", "setting": "[12]; [15]", "result": 0.6328}, {"measurement": "ADAMTS-4 expression", "setting": "[12]; [16]", "result": "reduced"}, {"measurement": "expression of aggrecan", "setting": "[12]; [16]", "result": "back to base-line levels"}, {"measurement": "joint damage", "setting": "[12]; [16]", "result": "less joint damage"}, {"measurement": "adverse clinical signs", "setting": "[12]; oral PPS in drinking water 100 mg/L (25 mg/kg/day), 3-month duration", "result": "no adverse clinical signs"}, {"measurement": "chondrocyte morphology", "setting": "[13]", "result": "maintaining chondrocyte morphology"}, {"measurement": "epiphyseal plate thickness", "setting": "[13]", "result": "prevented RRV-induced thinning of the epiphyseal plate"}, {"measurement": "loss of articular cartilage", "setting": "[13]", "result": "preventing the loss of articular cartilage"}, {"measurement": "proteoglycan matrix of articular cartilage (Safranin O/Fast Green, knee joint)", "setting": "[13]", "result": "protected the proteoglycan matrix of the articular cartilage"}, {"measurement": "skeletal muscle morphology (tibialis anterior, Masson's trichrome)", "setting": "[13]", "result": "protected the morphology of striations within the skeletal muscle"}]}
